Assay results taken from patent US11690845B2, “Methods of administering elagolix” (priority 2020, dated 2023).

Legend:
[1] = Drug interaction studies: pharmacokinetics of co-administered drug in the presence of elagolix; format: in vivo, human; conditions: for changes in exposures when co-administered with elagolix: elagolix 300 mg twice daily
Protocol: Drug interaction studies were performed with elagolix and other drugs likely to be co-administered and with drugs commonly used as probes for pharmacokinetic interactions. Tables 7 and 8 summarize the pharmacokinetic effects when elagolix was co-administered with these drugs.

clinical = conditions: human, in vivo
Protocol: Subjects: Twenty adult premenopausal female subjects were enrolled in the study.
Beginning on Day 3, subjects received elagolix 300 mg BID under fasting conditions every day until Day 10. […] Doses of elagolix were separated by approximately 12 hours.
Testing was performed for CYP2C19 variants including the *2 (rs4244285), *3 (rs4986893), *4 (rs28399504), *8 (rs41291556), *10 (rs6413438) and *12 (rs55640102) alleles.
Safety was evaluated during confinement and at each study visit through adverse event monitoring, vital signs measurements, physical examinations, and routine laboratory tests.

[2] = Drug interactions: effects of ORIAHNN on plasma exposure of other drugs; conditions: co-administration of ORIAHNN
CYP3A = assay: Substrate of / metabolism by CYP3A; format: in vitro ADME
[3] = Drug-drug interaction study: effect of elagolix on pharmacokinetics of CYP2B6 substrate bupropion and OH-bupropion; safety; conditions: for Tmax / Metabolite to Parent AUCinf Ratio / Metabolite to Parent AUCt Ratio / Metabolite to Parent Cmax Ratio: median; for Tmax: N = 24; for t1/2: harmonic mean; for AUCinf / AUCt / Cmax: mean
Protocol: Subjects: Twenty four (24) adult premenopausal women in generally good health participated in this study.
Elagolix 300 mg BID (as 300 mg immediate release tablets) was administered in the morning and evening on days 1 through 14 in period 2. […] No food was consumed for 2 hours prior to the evening doses of elagolix continuing through 2 hours after. The doses of elagolix were separated by approximately 12 hours.
Individual PK parameters (peak concentration [Cmax] and area under the concentration-time curve [AUC]) were estimated using noncompartmental methods.
Central value ratios (90% confidence intervals) for Cmax, AUC, and metabolite to parent ratios (MPRs) (day 11, period 2 vs. day 1, period 1) were calculated to assess the DDIs. Safety was evaluated through assessment of adverse events, vital signs, electrocardiogram, and clinical laboratory tests.
Adverse events (AEs) were monitored throughout the DDI study. Additional safety evaluations included monitoring of physical examinations, vital signs, electrocardiogram variables, and clinical laboratory values were assessed

[4] = Digoxin 0.5 mg single dose, elagolix 200 mg twice daily ×10 days, N 11
[5] = Bupropion + Elagolix (Day 11, Period 2)
[6] = Bupropion Alone (Day 1, Period 1)
[7] = single 150 mg bupropion, elagolix 300 mg twice daily for 10 preceding days, interval in brackets
[8] = Midazolam 2 mg single dose, elagolix 150 mg once daily ×13 days, N 11
[9] = Midazolam 2 mg single dose, elagolix 300 mg twice daily ×11 days, N 20
[10] = Rosuvastatin 20 mg once daily, elagolix 300 mg twice daily ×7 days, N 10

CC(NC(C)(C)C)C(=O)c1cccc(Cl)c1.Cl (racemic) [bupropion, (±)-1-(3-chlorophenyl)-2-[(1,1-dimethylethyl)amino]-1-propanone hydrochloride]
changes in exposures when co-administered with elagolix [1]: No clinically significant changes

COc1ccc2nc([S+]([O-])Cc3ncc(CO)c(OC)c3C)[nH]c2c1 (stereo not shown) [5-hydroxyomeprazole]
decrease in AUCinf with elagolix (clinical): 20-30%
AUCinf (clinical; 40 mg): 1880 ng·h/mL
AUCt (clinical; 40 mg): 1820 ng·h/mL
Cmax (clinical; 40 mg): 491 ng/mL
t1/2 (clinical; 40 mg): 1.57 h
decrease in AUCinf with elagolix (clinical; 300 mg): ~25%
decrease in Cmax with elagolix (clinical; 300 mg): approximately 30%

C[C@H]1O[C@@H](O[C@H]2[C@@H](O)C[C@H](O[C@H]3[C@@H](O)C[C@H](O[C@H]4CC[C@@]5(C)[C@H](CC[C@@H]6[C@@H]5C[C@@H](O)[C@]5(C)[C@@H](C7=CC(=O)OC7)CC[C@]65O)C4)O[C@@H]3C)O[C@@H]2C)C[C@H](O)[C@@H]1O [digoxin]
Ratio (90% CI) AUC, co-administration with elagolix vs medication alone [1, 4]: 1.26
Ratio (90% CI) Cmax, co-administration with elagolix vs medication alone [1, 4]: 1.71
Effect on Plasma Exposure of Concomitant Drug (AUC) [2]: ↑ digoxin

C[C@]12CC[C@@H]3c4ccc(O)cc4CC[C@H]3[C@@H]1CC[C@@H]2O [estradiol]
metabolism by CYP3A (CYP3A): metabolized partially

OC(Cn1cncn1)(Cn1cncn1)c1ccc(F)cc1F [fluconazole]
changes in exposures when co-administered with elagolix [1]: No clinically significant changes

C[C@H]1NC(C)(C)CO[C@]1(O)c1cccc(Cl)c1 [hydroxybupropion]
Tmax ([3]; Bupropion + Elagolix (Day 11, Period 2), elagolix 300 mg BID): 6.0 h
t1/2 [3, 5]: 20.5 h
AUCinf [3, 5]: 17600 ng·h/mL
AUCt [3, 5]: 17000 ng·h/mL
Cmax [3, 5]: 429 ng/mL
Metabolite to Parent AUCinf Ratio [3, 5]: 15.9
Metabolite to Parent AUCt Ratio [3, 5]: 15.9
Metabolite to Parent Cmax Ratio [3, 5]: 3.92
Tmax ([3]; Bupropion Alone (Day 1, Period 1), 150 mg single dose): 10.0 h
t1/2 [3, 6]: 24.7 h
AUCinf [3, 6]: 16700 ng·h/mL
AUCt [3, 6]: 15700 ng·h/mL
Cmax [3, 6]: 323 ng/mL
Metabolite to Parent AUCinf Ratio [3, 6]: 15.7
Metabolite to Parent AUCt Ratio [3, 6]: 15.4
Metabolite to Parent Cmax Ratio [3, 6]: 3.61
increase in Cmax upon co-administration with elagolix ([3]; elagolix 300 mg BID): 32%
changes in OH-bupropion/bupropion ratios of Cmax and AUC upon co-administration with elagolix ([3]; elagolix 300 mg BID, minimal changes): ≤ 120%
AUCinf ratio, co-administration of bupropion with elagolix vs bupropion alone (A/B) [3, 7]: about 1.063
Cmax ratio, co-administration of bupropion with elagolix vs bupropion alone (A/B) [3, 7]: about 1.317

Cc1ncc2n1-c1ccc(Cl)cc1C(c1ccccc1F)=NC2 [midazolam]
Ratio (90% CI) AUC, co-administration with elagolix vs medication alone [1, 8]: 0.65
Ratio (90% CI) Cmax, co-administration with elagolix vs medication alone [1, 8]: 0.81
Ratio (90% CI) AUC, co-administration with elagolix vs medication alone [1, 9]: 0.46
Ratio (90% CI) Cmax, co-administration with elagolix vs medication alone [1, 9]: 0.56
Effect on Plasma Exposure of Concomitant Drug (AUC) [2]: ↓ midazolam

C#C[C@]1(OC(C)=O)CC[C@H]2[C@@H]3CCC4=CC(=O)CC[C@@H]4[C@H]3CC[C@@]21C [norethindrone acetate]
metabolism by CYP3A (CYP3A): metabolized partially

COc1ccc2nc(S(=O)(=O)Cc3ncc(C)c(OC)c3C)[nH]c2c1 [omeprazole sulfone]
M:P AUCinf Ratio, Relative Bioavailability Point Estimate (clinical; female): 1.246
M:P AUCt Ratio, Relative Bioavailability Point Estimate (clinical; female): 1.497
increase in exposures with elagolix (clinical; female): ~3 fold
Cmax (clinical; female, 40 mg): 162 ng/mL
M:P AUCinf Ratio, Central Value Reference (clinical; female, 40 mg): 0.825
M:P AUCt Ratio, Central Value Reference (clinical; female, 40 mg): 0.679
RAUCinf (metabolite-to-parent AUCinf ratio) (clinical; female, 40 mg): 0.85
RAUCt (metabolite-to-parent AUCt ratio) (clinical; female, 40 mg): 0.76
increase in AUCinf with elagolix (clinical; female, 300 mg): 2.5 fold
increase in Cmax with elagolix (clinical; female, 300 mg): 2.7 fold
increase in M:P AUCinf ratio with elagolix (clinical; female, 300 mg): 25%
Cmax and AUCinf values upon co-administration with elagolix (direction of change) (clinical): increased

COc1ccc2[nH]c([S+]([O-])Cc3ncc(C)c(OC)c3C)nc2c1 (stereo not shown) [omeprazole, 5-methoxy-2-[[(4-methoxy3,5-dimethyl-2-pyridinyl)methyl]sulfinyl]-1H-benzimidazole, reference compound]
decrease in AUCinf with elagolix (clinical; female): 40%
increase in AUCinf with elagolix (clinical; female, 300 mg): 1.8 fold
increase in Cmax with elagolix (clinical; female, 300 mg): 1.9 fold
increase in exposure (AUCinf) with elagolix (clinical; female, im): 2-2.5 fold
Cmax and AUCinf values upon co-administration with elagolix (direction of change) (clinical): increased
Effect on Plasma Exposure of Concomitant Drug (AUC) [2]: ↑ omeprazole

CC(C)c1nc(N(C)S(C)(=O)=O)nc(-c2ccc(F)cc2)c1/C=C/[C@@H](O)C[C@@H](O)CC(=O)O [rosuvastatin]
Ratio (90% CI) AUC, co-administration with elagolix vs medication alone [1, 10]: 0.60
Ratio (90% CI) Cmax, co-administration with elagolix vs medication alone [1, 10]: 0.99
Effect on Plasma Exposure of Concomitant Drug (AUC) [2]: ↓ rosuvastatin

CN[C@H]1CC[C@@H](c2ccc(Cl)c(Cl)c2)c2ccccc21 [sertraline]
changes in exposures when co-administered with elagolix [1]: No clinically significant changes
